Laboratory results from ChEMBL document CHEMBL5370608, “Selective and Bioavailable HDAC6 2-(Difluoromethyl)-1,3,4-oxadiazole Substrate Inhibitors and Modeling of Their Bioactivation Mechanism” (J Med Chem, 2023).
pIC50: −log10 of the molar value.

Assays:
[1] = target: T1, Protein deacetylase HDAC6 (Homo sapiens, UniProt Q9UBN7); assay: Inhibition of full length TEV-cleavable N-terminal His6-tagged human recombinant HDAC6 using Ac-RGK (Ac)-AMC as substrate preincubated for 20 hrs followed by substrate addition and measured after 3 hrs by microplate reader analysis
T1 sequence (Q9UBN7 whole entry): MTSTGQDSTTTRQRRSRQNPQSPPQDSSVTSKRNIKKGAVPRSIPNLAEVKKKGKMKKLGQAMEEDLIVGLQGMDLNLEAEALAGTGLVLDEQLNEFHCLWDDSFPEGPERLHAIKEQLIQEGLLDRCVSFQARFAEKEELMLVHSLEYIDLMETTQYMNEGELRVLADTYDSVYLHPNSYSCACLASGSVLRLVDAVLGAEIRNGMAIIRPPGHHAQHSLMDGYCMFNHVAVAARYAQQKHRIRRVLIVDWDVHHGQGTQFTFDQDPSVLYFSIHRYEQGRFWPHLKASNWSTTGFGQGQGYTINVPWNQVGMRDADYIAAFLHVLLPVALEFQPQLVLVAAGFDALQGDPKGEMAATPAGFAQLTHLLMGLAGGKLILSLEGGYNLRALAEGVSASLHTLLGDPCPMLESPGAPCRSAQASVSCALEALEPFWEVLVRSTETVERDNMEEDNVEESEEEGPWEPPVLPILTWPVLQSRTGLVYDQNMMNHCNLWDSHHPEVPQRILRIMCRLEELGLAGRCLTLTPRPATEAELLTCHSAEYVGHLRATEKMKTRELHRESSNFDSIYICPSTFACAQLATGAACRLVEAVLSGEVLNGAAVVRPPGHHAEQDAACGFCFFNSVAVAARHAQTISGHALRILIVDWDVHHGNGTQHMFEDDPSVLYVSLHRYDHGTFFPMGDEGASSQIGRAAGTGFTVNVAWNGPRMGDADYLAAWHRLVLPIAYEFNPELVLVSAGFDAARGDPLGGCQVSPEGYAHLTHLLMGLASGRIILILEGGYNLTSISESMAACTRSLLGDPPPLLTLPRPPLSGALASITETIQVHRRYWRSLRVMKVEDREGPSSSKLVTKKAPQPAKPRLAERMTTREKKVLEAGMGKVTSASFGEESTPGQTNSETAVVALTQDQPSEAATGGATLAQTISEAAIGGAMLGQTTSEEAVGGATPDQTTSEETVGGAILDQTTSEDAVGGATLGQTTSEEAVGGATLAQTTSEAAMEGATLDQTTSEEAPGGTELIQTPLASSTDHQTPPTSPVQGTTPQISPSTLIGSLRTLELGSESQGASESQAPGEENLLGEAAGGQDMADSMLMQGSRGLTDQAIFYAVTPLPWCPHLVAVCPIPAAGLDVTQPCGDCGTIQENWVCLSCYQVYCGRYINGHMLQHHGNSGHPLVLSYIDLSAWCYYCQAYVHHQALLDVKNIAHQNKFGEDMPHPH

Histone deacetylase 9 = Histone deacetylase 9 (Homo sapiens, UniProt Q9UKV0); assay: Inhibition of human recombinant HDAC9 incubated for 30 mins by fluorimetry analysis
Histone deacetylase 9, sequence (Q9UKV0 whole entry): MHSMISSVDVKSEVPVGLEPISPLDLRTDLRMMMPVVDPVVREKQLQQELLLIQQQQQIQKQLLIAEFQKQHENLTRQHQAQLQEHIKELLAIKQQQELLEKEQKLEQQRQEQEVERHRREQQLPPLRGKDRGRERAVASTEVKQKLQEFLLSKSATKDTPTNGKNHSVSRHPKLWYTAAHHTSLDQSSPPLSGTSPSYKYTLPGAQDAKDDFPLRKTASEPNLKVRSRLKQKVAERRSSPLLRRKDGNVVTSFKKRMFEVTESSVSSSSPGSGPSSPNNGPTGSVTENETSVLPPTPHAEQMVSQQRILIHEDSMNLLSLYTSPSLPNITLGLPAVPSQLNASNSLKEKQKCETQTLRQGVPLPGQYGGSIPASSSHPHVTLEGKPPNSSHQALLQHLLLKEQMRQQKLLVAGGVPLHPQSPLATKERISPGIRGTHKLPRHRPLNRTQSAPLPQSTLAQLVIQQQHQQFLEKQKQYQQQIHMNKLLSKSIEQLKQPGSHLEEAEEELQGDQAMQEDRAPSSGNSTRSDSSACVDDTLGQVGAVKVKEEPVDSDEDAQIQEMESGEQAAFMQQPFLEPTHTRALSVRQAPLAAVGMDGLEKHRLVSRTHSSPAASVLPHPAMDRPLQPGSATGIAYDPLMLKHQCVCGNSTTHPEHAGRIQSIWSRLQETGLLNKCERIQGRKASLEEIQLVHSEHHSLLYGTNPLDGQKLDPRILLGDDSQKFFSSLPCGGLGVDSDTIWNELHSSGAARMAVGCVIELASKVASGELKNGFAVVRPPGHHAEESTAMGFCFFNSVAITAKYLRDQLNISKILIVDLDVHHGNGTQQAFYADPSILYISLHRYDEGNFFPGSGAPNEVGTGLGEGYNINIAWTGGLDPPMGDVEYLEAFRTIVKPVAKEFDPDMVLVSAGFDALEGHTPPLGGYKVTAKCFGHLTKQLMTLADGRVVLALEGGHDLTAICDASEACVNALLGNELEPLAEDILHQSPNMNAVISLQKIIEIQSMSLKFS

[2] = Metabolic stability in human hepatocytes assessed as intrinsic clearance at 1 uM measured per 10^6 cells incubated at 2 to 60 mins by LC-MS/MS analysis; assay type: ADME, cell-based, Hepatocyte; conditions: time 2-60 min, read-out: CLH
[3] = Metabolic stability in mouse hepatocytes assessed as intrinsic clearance at 1 uM measured per 10^6 cells incubated at 2 to 60 mins by LC-MS/MS analysis; assay type: ADME, cell-based, Hepatocyte; conditions: time 2-60 min, read-out: CLH
[4] = Metabolic stability in rat hepatocytes assessed as intrinsic clearance at 1 uM measured per 10^6 cells incubated at 2 to 60 mins by LC-MS/MS analysis; assay type: ADME, cell-based, Hepatocyte; conditions: time 2-60 min, read-out: CLH
[5] = Plasma protein binding in human assessed as unbound fraction; assay type: ADME, cell-free
[6] = target: T2, Protein deacetylase HDAC6 (Mus musculus, UniProt Q9Z2V5); assay: Inhibition of HDAC6 in mouse LA-4 cells assessed as deacetylation of acetylated alpha-tubulin level incubated for 24 hrs by Western blot analysis; assay type: cell-based
T2 sequence (Q9Z2V5 whole entry): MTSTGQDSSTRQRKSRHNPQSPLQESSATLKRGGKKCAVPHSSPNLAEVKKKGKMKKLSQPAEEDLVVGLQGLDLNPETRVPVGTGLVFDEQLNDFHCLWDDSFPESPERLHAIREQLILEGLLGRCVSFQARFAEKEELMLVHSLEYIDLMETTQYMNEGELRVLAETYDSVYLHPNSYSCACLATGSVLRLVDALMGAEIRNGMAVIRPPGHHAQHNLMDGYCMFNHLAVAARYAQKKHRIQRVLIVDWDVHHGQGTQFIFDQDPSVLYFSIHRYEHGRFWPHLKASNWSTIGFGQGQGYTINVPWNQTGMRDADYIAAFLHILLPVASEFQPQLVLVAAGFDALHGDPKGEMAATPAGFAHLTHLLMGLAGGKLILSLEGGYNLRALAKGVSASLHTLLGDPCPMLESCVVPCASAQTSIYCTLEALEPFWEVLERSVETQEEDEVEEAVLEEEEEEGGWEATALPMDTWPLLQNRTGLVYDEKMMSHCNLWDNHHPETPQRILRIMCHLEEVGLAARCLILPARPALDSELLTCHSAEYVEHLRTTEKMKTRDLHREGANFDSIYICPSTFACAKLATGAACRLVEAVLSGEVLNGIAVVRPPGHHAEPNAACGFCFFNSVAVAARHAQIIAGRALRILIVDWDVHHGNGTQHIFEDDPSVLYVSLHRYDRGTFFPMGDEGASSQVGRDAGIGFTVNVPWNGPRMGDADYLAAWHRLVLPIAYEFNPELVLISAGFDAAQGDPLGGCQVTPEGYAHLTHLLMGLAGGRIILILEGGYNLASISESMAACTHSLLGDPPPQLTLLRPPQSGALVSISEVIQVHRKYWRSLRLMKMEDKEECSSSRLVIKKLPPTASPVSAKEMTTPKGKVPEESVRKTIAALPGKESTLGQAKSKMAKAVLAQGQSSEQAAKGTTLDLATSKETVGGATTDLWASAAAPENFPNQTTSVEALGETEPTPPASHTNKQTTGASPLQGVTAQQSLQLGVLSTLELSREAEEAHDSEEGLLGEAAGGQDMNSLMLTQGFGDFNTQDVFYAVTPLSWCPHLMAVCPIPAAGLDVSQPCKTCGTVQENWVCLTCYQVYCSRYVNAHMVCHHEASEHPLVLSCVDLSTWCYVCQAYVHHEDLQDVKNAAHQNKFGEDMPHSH

[7] = Clearance in Wistar Han rat at 0.5 mg/kg, iv measured upto 24 hrs by LC-MS/MS analysis; assay type: ADME, organism-based; conditions: in vivo
[8] = Volume of distribution at steady state in Wistar Han rat at 1 mg/kg, po or 0.5 mg/kg, iv measured upto 24 hrs by LC-MS/MS analysis; assay type: ADME, organism-based; conditions: in vivo
[9] = Chemical stability of compound in HCL solution at pH 1 assessed as half life by UPLC analysis; assay type: physicochemical
[10] = Chemical stability of compound in sodium phosphate buffer at pH 7.4 assessed as half life by UPLC analysis; assay type: physicochemical
[11] = Chemical stability of compound in sodium carbonate buffer at pH 10 assessed as half life by UPLC analysis; assay type: physicochemical

pIC50 [1]	pIC50 (Histone deacetylase 9)	hepatocyte CLint at 1 µM [2] [µL/min/1e6 cells]	hepatocyte CLint at 1 µM [3] [µL/min/1e6 cells]	hepatocyte CLint at 1 µM [4] [µL/min/1e6 cells]	fraction unbound [5]	pIC50 [6]	clearance [7] [mL/min/kg]	Vdss [8] [L/kg]	half-life [9] [h]	half-life [10] [h]	half-life [11] [h]	Structure (SMILES)
9.00	< 4.00	< 1	< 1	< 1	0.13	6.00	3.2	1.8	7.68	84	< 13.7	FC(F)c1nnc(-c2ccc(Cn3nnc(-c4ccccn4)n3)nc2)o1
8.40	4.72	5.1	130	51	0.23	6.40	180	2.2	–	–	–	O=C(NO)c1cnc(NC2(c3ccccc3)CCC(F)(F)CC2)nc1
8.80	< 4.00	–	–	–	–	–	–	–	–	–	–	COc1ccccc1-c1nnn(Cc2ccc(-c3nnc(C(F)F)o3)cn2)n1
8.80	4.72	–	–	–	–	–	–	–	11.8	221	7.2	CS(=O)(=O)NCC(Nc1ncc(-c2nnc(C(F)F)o2)cn1)c1ccc(OC(F)(F)F)cc1 (stereo not drawn)
